Data from PubChem BioAssay (NCI).
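A five-concentration, 48-hour dose response in 96-well plates underlies each endpoint, interpolated linearly between surrounding concentrations. GI50 marks 50% less growth. At the TGI there is no net growth.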

Assays:
Test in all cases: growth of human tumour cells (NCI), 48 h
ACHN renal = tested on: ACHN renal
TK-10 renal = tested on: TK-10 renal
RXF 393 renal = tested on: RXF 393 renal
IGROV1 ovarian = tested on: IGROV1 ovarian
LOX IMVI melanoma = tested on: LOX IMVI melanoma
NCI-H522 lung = tested on: NCI-H522 lung
PC-3 prostate = tested on: PC-3 prostate
UO-31 renal = tested on: UO-31 renal
SK-MEL-2 melanoma = tested on: SK-MEL-2 melanoma
HT29 colon = tested on: HT29 colon
U251 CNS = tested on: U251 CNS
CAKI-1 renal = tested on: CAKI-1 renal
NCI-H460 lung = tested on: NCI-H460 lung
HOP-92 NSCLC = tested on: HOP-92 NSCLC
SF-268 CNS = tested on: SF-268 CNS
T-47D breast = tested on: T-47D breast
SNB-75 CNS = tested on: SNB-75 CNS
EKVX NSCLC = tested on: EKVX NSCLC
CCRF-CEM leukemia = tested on: CCRF-CEM leukemia
K-562 leukemia = tested on: K-562 leukemia
MCF7 breast = tested on: MCF7 breast
HOP-62 NSCLC = tested on: HOP-62 NSCLC
SF-295 CNS = tested on: SF-295 CNS
UACC-257 melanoma = tested on: UACC-257 melanoma
DU-145 prostate = tested on: DU-145 prostate
UACC-62 melanoma = tested on: UACC-62 melanoma
KM12 colon = tested on: KM12 colon
NCI-H23 lung = tested on: NCI-H23 lung
HCC-2998 colon = tested on: HCC-2998 colon
SR leukemia = tested on: SR leukemia
OVCAR-4 ovarian = tested on: OVCAR-4 ovarian
786-0 renal = tested on: 786-0 renal
OVCAR-5 ovarian = tested on: OVCAR-5 ovarian
MOLT-4 leukemia = tested on: MOLT-4 leukemia
OVCAR-3 ovarian = tested on: OVCAR-3 ovarian
SK-MEL-5 melanoma = tested on: SK-MEL-5 melanoma
HCT-15 colon = tested on: HCT-15 colon
A549 NSCLC = tested on: A549 NSCLC
NCI/ADR-RES ovarian = tested on: NCI/ADR-RES ovarian
BT-549 breast = tested on: BT-549 breast
MDA-MB-231 breast = tested on: MDA-MB-231 breast
MALME-3M melanoma = tested on: MALME-3M melanoma
M14 melanoma = tested on: M14 melanoma
HL-60(TB) leukemia = tested on: HL-60(TB) leukemia
SNB-19 CNS = tested on: SNB-19 CNS
HCT-116 colon = tested on: HCT-116 colon
RPMI-8226 leukemia = tested on: RPMI-8226 leukemia
SW-620 colon = tested on: SW-620 colon
SN12C renal = tested on: SN12C renal
MDA-MB-435 = tested on: MDA-MB-435
HS 578T breast = tested on: HS 578T breast
OVCAR-8 ovarian = tested on: OVCAR-8 ovarian
SF-539 CNS = tested on: SF-539 CNS
SK-MEL-28 melanoma = tested on: SK-MEL-28 melanoma
A498 renal = tested on: A498 renal

CN1CCN(CCOc2ccc(-c3cnc4c(-c5cccc(F)c5)cnn4c3)cc2)CC1
GI50 (ACHN renal): 1660 nM | TGI (ACHN renal): 3020 nM | GI50 (TK-10 renal): 2070 nM | TGI (TK-10 renal): 3770 nM | GI50 (RXF 393 renal): 1660 nM | TGI (RXF 393 renal): 3220 nM | GI50 (IGROV1 ovarian): 1820 nM | TGI (IGROV1 ovarian): 3800 nM | GI50 (LOX IMVI melanoma): 1840 nM | TGI (LOX IMVI melanoma): 3350 nM | GI50 (NCI-H522 lung): 1730 nM | TGI (NCI-H522 lung): 3650 nM | GI50 (PC-3 prostate): 1920 nM | TGI (PC-3 prostate): 4390 nM | GI50 (UO-31 renal): 1470 nM | TGI (UO-31 renal): 3370 nM | GI50 (SK-MEL-2 melanoma): 1980 nM | TGI (SK-MEL-2 melanoma): 4270 nM | GI50 (HT29 colon): 1510 nM | TGI (HT29 colon): 3320 nM | GI50 (U251 CNS): 1640 nM | TGI (U251 CNS): 3570 nM | GI50 (CAKI-1 renal): 1610 nM | TGI (CAKI-1 renal): 3120 nM | GI50 (NCI-H460 lung): 1720 nM | TGI (NCI-H460 lung): 3190 nM | GI50 (HOP-92 NSCLC): 1410 nM | TGI (HOP-92 NSCLC): 3200 nM | GI50 (SF-268 CNS): 1990 nM | TGI (SF-268 CNS): 4790 nM | GI50 (T-47D breast): 1520 nM | TGI (T-47D breast): 3710 nM | GI50 (SNB-75 CNS): 1390 nM | TGI (SNB-75 CNS): 3530 nM | GI50 (EKVX NSCLC): 1720 nM | TGI (EKVX NSCLC): 3450 nM | GI50 (CCRF-CEM leukemia): 2110 nM | TGI (CCRF-CEM leukemia): 5230 nM | GI50 (K-562 leukemia): 915 nM | TGI (K-562 leukemia): 3480 nM | GI50 (MCF7 breast): 1510 nM | TGI (MCF7 breast): 3130 nM | GI50 (HOP-62 NSCLC): 1720 nM | TGI (HOP-62 NSCLC): 3730 nM | GI50 (SF-295 CNS): 1710 nM | TGI (SF-295 CNS): 3270 nM | GI50 (UACC-257 melanoma): 2330 nM | TGI (UACC-257 melanoma): 5710 nM | GI50 (DU-145 prostate): 1740 nM | TGI (DU-145 prostate): 3280 nM | GI50 (UACC-62 melanoma): 1730 nM | TGI (UACC-62 melanoma): 3290 nM | GI50 (KM12 colon): 1500 nM | TGI (KM12 colon): 3060 nM | GI50 (NCI-H23 lung): 1870 nM | TGI (NCI-H23 lung): 3720 nM | GI50 (HCC-2998 colon): 1700 nM | TGI (HCC-2998 colon): 3280 nM | GI50 (SR leukemia): 4020 nM | TGI (SR leukemia): > 100000 nM | GI50 (OVCAR-4 ovarian): 1930 nM | TGI (OVCAR-4 ovarian): 5750 nM | GI50 (786-0 renal): 1790 nM | TGI (786-0 renal): 3420 nM | GI50 (OVCAR-5 ovarian): 1790 nM | TGI (OVCAR-5 ovarian): 3550 nM | GI50 (MOLT-4 leukemia): 2150 nM | TGI (MOLT-4 leukemia): 4820 nM | GI50 (OVCAR-3 ovarian): 1870 nM | TGI (OVCAR-3 ovarian): 4030 nM | GI50 (SK-MEL-5 melanoma): 1690 nM | TGI (SK-MEL-5 melanoma): 3080 nM | GI50 (HCT-15 colon): 1520 nM | TGI (HCT-15 colon): 2920 nM | GI50 (A549 NSCLC): 1900 nM | TGI (A549 NSCLC): 3940 nM | GI50 (NCI/ADR-RES ovarian): 2470 nM | TGI (NCI/ADR-RES ovarian): 6140 nM | GI50 (BT-549 breast): 3510 nM | TGI (BT-549 breast): 14100 nM | GI50 (MDA-MB-231 breast): 1710 nM | TGI (MDA-MB-231 breast): 3550 nM | GI50 (MALME-3M melanoma): 1660 nM | TGI (MALME-3M melanoma): 3230 nM | GI50 (M14 melanoma): 1950 nM | TGI (M14 melanoma): 4340 nM | GI50 (HL-60(TB) leukemia): 2100 nM | TGI (HL-60(TB) leukemia): 4360 nM | GI50 (SNB-19 CNS): 1720 nM | TGI (SNB-19 CNS): 3800 nM | GI50 (HCT-116 colon): 1790 nM | TGI (HCT-116 colon): 3510 nM | GI50 (RPMI-8226 leukemia): 1850 nM | TGI (RPMI-8226 leukemia): 5250 nM | GI50 (SW-620 colon): 1810 nM | TGI (SW-620 colon): 3400 nM | GI50 (SN12C renal): 1820 nM | TGI (SN12C renal): 3760 nM | GI50 (MDA-MB-435): 1710 nM | TGI (MDA-MB-435): 3160 nM | GI50 (HS 578T breast): 1740 nM | TGI (HS 578T breast): 4790 nM | GI50 (OVCAR-8 ovarian): 2450 nM | TGI (OVCAR-8 ovarian): 7120 nM | GI50 (SF-539 CNS): 1490 nM | TGI (SF-539 CNS): 2880 nM | GI50 (SK-MEL-28 melanoma): 2070 nM | TGI (SK-MEL-28 melanoma): 4540 nM | GI50 (A498 renal): 1760 nM | TGI (A498 renal): 5700 nM
